# Biological target: recombinant human dual expressed Avi PRMT5/His-MEP50 protein (Homo sapiens (Human), UniProt O14744)
# Test: HTRF binding assay in presence of MTA
# Details: 30 μM MTA
# Procedure: The PRMT5 binding activity of compounds of the present invention was determined using an HTRF binding assay or SPR assay.
# A recombinant human dual expressed Avi PRMT5/His-MEP50) protein (corresponding to amino acids for PRMT5 2-637, and 2-342 for MEP50 expressed in baculovirus) was incubated with target fragments in final buffer (25 mM ADA pH 7.2, 30 μM MTA, 1 mM TCEP, 50 mM NaCl, 0.002% Tween, 5 nM proprietary Tracer binding compound prepared in-house), overnight at 2-8° C. After overnight incubation the binding is monitored after the addition of 0.5 nM Anti-His-Tb (Cisbio) after 1 hr incubation at RT (˜20-24 hrs total binding time). The HTRF signal was measured using a Clariostar reader (BMG) excitation filter (Ex Tr), dichroic filter (LP TP) and emission filters (F 665-10 and F 620-10) manufacturer's instructions. The HTRF ratio was calculated using the formula: [emission 665/emission 620]*10000.
# Chain of recombinant human dual expressed Avi PRMT5/His-MEP50 protein (O14744 2-637): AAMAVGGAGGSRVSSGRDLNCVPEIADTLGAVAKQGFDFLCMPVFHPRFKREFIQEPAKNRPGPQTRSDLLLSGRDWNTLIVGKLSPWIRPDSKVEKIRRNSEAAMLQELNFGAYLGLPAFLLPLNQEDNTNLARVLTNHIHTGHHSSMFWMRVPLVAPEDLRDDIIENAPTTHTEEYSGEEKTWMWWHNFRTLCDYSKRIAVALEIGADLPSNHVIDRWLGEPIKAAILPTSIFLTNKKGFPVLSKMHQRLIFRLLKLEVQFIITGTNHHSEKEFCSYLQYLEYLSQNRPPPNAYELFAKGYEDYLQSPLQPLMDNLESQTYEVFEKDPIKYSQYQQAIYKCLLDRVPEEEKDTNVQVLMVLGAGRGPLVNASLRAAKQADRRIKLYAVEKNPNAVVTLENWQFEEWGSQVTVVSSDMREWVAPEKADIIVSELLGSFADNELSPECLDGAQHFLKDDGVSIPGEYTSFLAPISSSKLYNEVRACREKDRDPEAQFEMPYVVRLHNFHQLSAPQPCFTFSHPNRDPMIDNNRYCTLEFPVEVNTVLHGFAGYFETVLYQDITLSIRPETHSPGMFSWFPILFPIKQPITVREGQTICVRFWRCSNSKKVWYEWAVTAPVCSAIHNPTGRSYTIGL
# Chain of recombinant human dual expressed Avi PRMT5/His-MEP50 protein (Q9BQA1 2-342 partner): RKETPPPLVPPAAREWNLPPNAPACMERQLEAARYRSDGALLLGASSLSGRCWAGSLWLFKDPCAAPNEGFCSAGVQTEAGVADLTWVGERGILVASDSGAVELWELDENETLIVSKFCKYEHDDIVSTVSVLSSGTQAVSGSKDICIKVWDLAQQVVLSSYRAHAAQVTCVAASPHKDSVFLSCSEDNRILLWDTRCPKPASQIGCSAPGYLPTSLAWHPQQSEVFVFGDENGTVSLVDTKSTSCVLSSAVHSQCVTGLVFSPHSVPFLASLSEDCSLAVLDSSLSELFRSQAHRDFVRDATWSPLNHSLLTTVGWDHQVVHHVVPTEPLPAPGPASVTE
row,Structure (SMILES),IC50 [µM]
1,"Cc1cc(N)nc2ccc(-c3ccc(F)cc3)nc12 [Example 4-9, 6-(4-fluorophenyl)-4-methyl-1,5-naphthyridin-2-amine]",14
2,"Cc1cc(N)nc2cc(-c3cnn(C)c3)cnc12 [Example 1-7, 4-methyl-7-(1-methyl-1H-pyrazol-4-yl)-1,5-naphthyridin-2-amine]",7.92
3,"C#Cc1c(CNC(=O)c2ccccc2)[nH]c2cc(C)c(N)nc12 [Example 15-4, N-((5-amino-3-ethynyl-6-methyl-1H-pyrrolo[3,2-b]pyridin-2-yl)methyl)benzamide]",17
4,"Cc1cc(N)nc2cc(Cc3ccccc3)cnc12 [Example 2-1, 7-benzyl-4-methyl-1,5-naphthyridin-2-amine]",6.64
5,"Cc1cc(N)nc2cc(Oc3ccccc3F)cnc12 [Example 3-2, 7-(2-fluorophenoxy)-4-methyl-1,5-naphthyridin-2-amine]",5.11
6,"Cc1cc(N)nc2cc(Cc3ccncc3)cnc12 [Example 2-8, 4-methyl-7-(4-pyridylmethyl)-1,5-naphthyridin-2-amine]",35.5
7,"Cc1cc(N)nc2ccc(-c3ccccn3)nc12 [Example 4-2, 4-methyl-6-(2-pyridyl)-1,5-naphthyridin-2-amine]",13.9
8,"Cc1cc(N)nc2ccc(NC3CCC3)nc12 [Example 5-3, N^6-cyclobutyl-4-methyl-1,5-naphthyridine-2,6-diamine]",87.9
9,"Cc1ccccc1Oc1cnc2c(C)cc(N)nc2c1 [Example 3-5, 4-methyl-7-(2-methylphenoxy)-1,5-naphtbyridin-2-amine]",39.6
10,"Cc1ccccc1Cc1cnc2c(C)cc(N)nc2c1 [Example 2-5, 4-methyl-7-(2-methylbenzyl)-1,5-naphtbyridin-2-amine]",8.83
11,"Cc1cc(N)nc2ccc(-c3cnsc3)nc12 [Example 4-6, 6-isothiazol-4-yl-4-methyl-1,5-naphthyridin-2-amine]",21.8
12,"Cc1cc(N)nc2ccc(-c3cccnc3)nc12 [Example 4-3, 4-methyl-6-(3-pyridyl)-1,5-naphthyridin-2-amine]",23.9
13,"CC(=O)NCc1cc2nc(N)c(C)cc2n1C(C)=O [Example 15-7, N-((1-acetyl-5-amino-6-methyl-1H-pyrrolo[3,2-b]pyridin-2-yl)methyl)acetamide]",0.581
14,"Cc1cc(N)nc2cc(Cc3cscn3)cnc12 [Example 2-10, 4-methyl-7-(thiazol-4-ylmethyl)-1,5-naphthyridin-2-amine]",2.14
15,"Cc1cc(N)nc2cc(-c3cncs3)cnc12 [Example 1-6, 4-methyl-7-(thiazol-5-yl)-1,5-naphthyridin-2-amine]",51
16,"Cc1cc(N)nc2cc(-c3ccsn3)cnc12 [Example 1-5, 7-(isothiazol-3-yl)-4-methyl-1,5-naphtbyridin-2-amine]",55.5
17,"Cc1cc2c(cc(CNC(=O)c3ccccc3)n2C)nc1N [Example 15-3, N-[(5-amino-1,6-dimethyl-pyrrolo[3,2-b]pyridin-2-yl)methyl]benzamide]",0.138
18,"Cc1cc(N)nc2cc(Oc3ccccc3)cnc12 [Example 3-1, 4-methyl-7-phenoxy-1,5-naphthyridin-2-amine]",8.99
19,"Cc1cc(N)nc2cc(Oc3ccncc3)cnc12 [Example 3-8, 4-methyl-7-(pyridin-4-yloxy)-1,5-naphtbyridin-2-amine]",84
20,"Cc1cc(N)nc2cc(Cc3ccccn3)cnc12 [Example 2-6, 4-methyl-7-(2-pyridylmethyl)-1,5-naphthyridin-2-amine]",2.85
21,"Cc1cc(N)nc2ccc(-c3ccsn3)nc12 [Example 4-10, 6-isothiazol-3-yl-4-methyl-1,5-naphthyridin-2-amine]",13.5
22,"Cc1cc(N)nc2cc(-c3cccnn3)cnc12 [Example 1-4, 4-methyl-7-(pyridazin-3-yl)-1,5-naphthyridin-2-amine]",7.46
23,"Cc1cc(N)nc2cc(-c3cccnc3)cnc12 [Example 1-3, 4-methyl-7-(pyridin-3-yl)-1,5-paphthyridin-2-amine]",2.08

# — US20240368153A1, “Aminopyridine-based MTA-Cooperative PRMT5 Inhibitors” (Mirati Therapeutics, Inc., priority 2021, published 2024)
